{"source": "patent US20250114356A1", "about": "“INDAZOLE BASED COMPOUNDS AND ASSOCIATED METHODS OF USE” (Arvinas Operations, Inc., priority 2020, published 2025)", "type_in_all_cases": "cell-based", "key": {"[1]": {"target": "T1, wildtype LRRK2 (Homo sapiens, UniProt Q5S007)", "T1 construct": "expressed in transfected cells; host or cells: HEK293 (ATCC CRL-1573), transient transfection, ubiquitin promoter", "assay": "LRRK2 degradation assay, wildtype LRRK2-HiBit expressed from plasmid in HEK293 cells", "conditions": "HEK293 cells transfected with HiBit-tagged wildtype LRRK2, 24 hours compound incubation", "how_it_was_run": "(§1)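 DC50 and Dmax derived from per-plate curve fits of LRRK2-HiBit signal over firefly luciferase (cell number/viability), as % of DMSO median, from 6 replicates across two days. Compound exposure was 24 hours at 37° C. in HEK293 cells transfected with wild-type or G2019S LRRK2 bearing a C-terminal HiBit tag.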"}, "[2]": {"target": "T2, G2019S LRRK2 (Homo sapiens, UniProt Q5S007, G2019S)", "T2 construct": "expressed in transfected cells; host or cells: HEK293 (ATCC CRL-1573), transient transfection, ubiquitin promoter", "T2 sequence (Q5S007 whole entry G2019S)": "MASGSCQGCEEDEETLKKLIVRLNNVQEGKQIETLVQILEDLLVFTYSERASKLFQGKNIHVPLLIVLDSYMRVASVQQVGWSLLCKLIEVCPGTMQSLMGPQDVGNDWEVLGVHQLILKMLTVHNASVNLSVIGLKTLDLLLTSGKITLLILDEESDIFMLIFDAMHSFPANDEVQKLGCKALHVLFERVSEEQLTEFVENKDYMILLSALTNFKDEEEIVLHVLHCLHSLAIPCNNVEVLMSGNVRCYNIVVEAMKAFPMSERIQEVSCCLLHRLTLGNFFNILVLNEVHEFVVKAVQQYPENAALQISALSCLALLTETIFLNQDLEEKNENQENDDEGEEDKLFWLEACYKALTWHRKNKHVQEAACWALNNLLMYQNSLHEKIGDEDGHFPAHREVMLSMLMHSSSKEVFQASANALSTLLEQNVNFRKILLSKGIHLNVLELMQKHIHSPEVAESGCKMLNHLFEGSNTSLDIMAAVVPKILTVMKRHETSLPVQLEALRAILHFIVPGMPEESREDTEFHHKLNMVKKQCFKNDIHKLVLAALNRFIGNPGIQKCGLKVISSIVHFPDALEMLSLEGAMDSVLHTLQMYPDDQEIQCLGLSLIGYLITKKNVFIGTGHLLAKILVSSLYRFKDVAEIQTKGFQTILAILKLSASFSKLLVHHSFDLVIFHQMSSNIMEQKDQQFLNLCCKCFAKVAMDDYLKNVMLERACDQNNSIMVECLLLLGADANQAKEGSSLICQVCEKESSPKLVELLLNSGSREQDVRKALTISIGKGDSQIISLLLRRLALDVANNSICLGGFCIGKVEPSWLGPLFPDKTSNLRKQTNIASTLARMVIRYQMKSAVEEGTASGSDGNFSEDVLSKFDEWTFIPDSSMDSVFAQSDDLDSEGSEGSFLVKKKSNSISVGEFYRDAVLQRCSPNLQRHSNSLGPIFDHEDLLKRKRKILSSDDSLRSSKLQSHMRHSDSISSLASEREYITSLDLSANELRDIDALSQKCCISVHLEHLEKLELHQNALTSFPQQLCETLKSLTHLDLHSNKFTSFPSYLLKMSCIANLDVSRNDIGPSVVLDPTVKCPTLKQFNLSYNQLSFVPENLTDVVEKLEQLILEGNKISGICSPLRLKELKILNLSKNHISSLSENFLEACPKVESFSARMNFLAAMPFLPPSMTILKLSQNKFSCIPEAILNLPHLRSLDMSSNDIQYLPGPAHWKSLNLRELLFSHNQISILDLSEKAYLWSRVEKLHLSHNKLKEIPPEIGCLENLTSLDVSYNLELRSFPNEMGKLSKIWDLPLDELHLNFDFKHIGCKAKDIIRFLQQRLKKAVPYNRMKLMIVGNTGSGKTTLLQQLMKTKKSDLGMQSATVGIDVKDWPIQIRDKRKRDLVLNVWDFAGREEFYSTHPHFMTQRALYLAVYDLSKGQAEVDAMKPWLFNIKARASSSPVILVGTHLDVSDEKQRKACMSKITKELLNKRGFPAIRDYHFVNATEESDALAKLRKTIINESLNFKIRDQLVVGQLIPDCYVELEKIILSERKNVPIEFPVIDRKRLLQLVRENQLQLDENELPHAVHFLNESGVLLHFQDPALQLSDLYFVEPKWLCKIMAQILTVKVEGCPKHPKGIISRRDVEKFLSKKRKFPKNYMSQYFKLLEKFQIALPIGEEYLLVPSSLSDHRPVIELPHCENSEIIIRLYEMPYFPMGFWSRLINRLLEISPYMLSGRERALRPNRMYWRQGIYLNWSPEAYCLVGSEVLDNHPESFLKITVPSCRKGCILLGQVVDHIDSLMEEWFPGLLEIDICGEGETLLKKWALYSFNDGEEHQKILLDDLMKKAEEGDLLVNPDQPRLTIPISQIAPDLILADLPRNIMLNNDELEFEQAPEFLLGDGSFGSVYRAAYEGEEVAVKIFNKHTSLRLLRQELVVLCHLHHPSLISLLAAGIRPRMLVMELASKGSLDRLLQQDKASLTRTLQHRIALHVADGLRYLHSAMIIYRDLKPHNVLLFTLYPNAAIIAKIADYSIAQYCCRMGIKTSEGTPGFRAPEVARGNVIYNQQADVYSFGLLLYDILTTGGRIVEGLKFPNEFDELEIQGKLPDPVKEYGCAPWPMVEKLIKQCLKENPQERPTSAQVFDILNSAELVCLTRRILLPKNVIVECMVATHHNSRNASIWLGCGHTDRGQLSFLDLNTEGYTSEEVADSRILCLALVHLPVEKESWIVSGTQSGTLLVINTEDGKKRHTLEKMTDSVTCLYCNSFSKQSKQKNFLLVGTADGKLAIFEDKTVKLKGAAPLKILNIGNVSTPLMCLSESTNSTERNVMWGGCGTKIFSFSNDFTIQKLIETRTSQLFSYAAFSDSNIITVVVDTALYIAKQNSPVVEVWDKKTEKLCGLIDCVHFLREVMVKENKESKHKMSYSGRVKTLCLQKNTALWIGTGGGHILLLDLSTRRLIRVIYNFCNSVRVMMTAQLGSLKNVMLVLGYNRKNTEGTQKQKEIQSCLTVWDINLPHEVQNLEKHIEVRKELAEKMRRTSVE", "assay": "LRRK2 degradation assay, G2019S LRRK2-HiBit expressed from plasmid in HEK293 cells", "conditions": "HEK293 cells transfected with HiBit-tagged G2019S LRRK2, 24 hours compound incubation", "how_it_was_run": "as §1"}, "[3]": {"target": "T3, LRRK2 (endogenous gene tagged with a HiBit sequence) (Homo sapiens, UniProt Q5S007)", "T3 construct": "endogenous in cells; host or cells: HEK293 with a HiBit knock-in at the endogenous LRRK2 locus, stably expressing firefly luciferase", "T3 sequence (Q5S007 whole entry)": "as the sequence (Q5S007 whole entry G2019S) above, with S2019G counted along it", "assay": "LRRK2 degradation assay, endogenous LRRK2 gene tagged with HiBit in HEK293 cells", "conditions": "24 hours compound incubation", "experimental": "The assay measures the degradation of LRRK2 in cells where the C-terminus (3′) of the endogenous gene has been tagged with a HiBit sequence in HEK293 cells. The cells also express firefly lucisferase, expressed from a Cytomegalovirus promoter and introduced into the HiBit tagged cells and stably expressed. The Nano-Glo® Dual Luciferase Reporter Assay System (Promega™, Madison, WI) was utilized.\nDay 1—Preparation of Compound and Assay Plates. Two sets of plates were prepared: a triplicate set for the HiBit assay in white 384-well plates and a triplicate set of plate in black 384-well plates for the Alamar Blue cell viability assay. Briefly, the growth media (DMEM+Glutamax-10% fetal bovine serum-1% Penicillin-Streptomicin) from two T128 flasks was aspirated from the flasks. Cells were washed with Dulbecco's Phosphate Buffered Saline (dPBS) and aspirated. Trypsin (3 mL per flask) was added and the flasks were incubated for 2-3 minutes.\nTen mL of OptiMEM-10% fetal bovine-1% penicillin-streptomycin (hereinafter, “OptiMEM media”) was added to the flask and the cells and transferred to a 50 mL conical tube. A cell count (25 ul of cell into Effendorf vial+25 ul of Trypan Blue Stain) was performed and the cell density adjusted to 15,000 cell/45 μl/well (3.33×10^5/mL) in OptiMEM media.\nForty-five microliters of the cell suspension (15,000 cells) was aliquoted to each well of the white 384-well plate. The plates incubated at room temperature for 10 minutes before being placed in the 37° C.+5% CO2 incubator overnight\nDay 2—Compound Treatment. Exemplary compounds were prepared at a 1 mM starting concentration and 1:3 serial dilution for 11 points CRC prepared and stored in the freezer. The Master Compound Plate was thawed overnight at room temperature. DMSO (20 μL) was added into column 24 of the Master Compound Plate for negative control and 20 μL of 300 μM of Exemplary Compound 4 in column 23 as positive control.\nIntermediate Compound Plate with 4% DMSO in OptiMEM Media. DMSO was added to warm OptiMEM media to achieve a 4% DMSO solution (approximately 50 mL/plate). One-hundred microliters of the OptiMEM-4% DMSO was aliquoted to each well of 384-Well Deep Well Microplates.\nThe Master Compound Plate and the Intermediate Compound Plate were spun down.\nOne microliter of compound from the Master Compound Plate was transferred into the Intermediate plate (a 1:100 dilution). […]\nDay 3—HiBit Assay. […] Fluorescence of each plate was read on a plated reader for the Alamar Blue viability assay. […]\nThe One Glo luciferase mixture was prepared. […] The luminescence of each plate was read on a plate reader.\n1:100 DLR substrate and 1:100 LgBiT Protein dilution were added to the Promega Stop and Glo buffer and mixed just before addition to assay plates. […] The luminescence of each plate was read on a plate reader. […]"}}}
{"smiles": "C[C@H]1CN(c2cc(-c3n[nH]c4ccc(OC5(C)CC5)cc34)ncn2)CCN1CCOCCOCCOCCOc1ccc2c(c1)C(=O)N(C1CCC(=O)NC1=O)C2=O", "note": "(stereo partly drawn) [compound 4, 2-(2,6-dioxopiperidin-3-yl)-5-{2-[2-(2-{2-[(2S)-2-methyl-4-{6-[5-(1-methylcyclopropoxy)-1H-indazol-3-yl]pyrimidin-4-yl}piperazin-1-yl]ethoxy}ethoxy)ethoxy]ethoxy}-2,3-dihydro-1H-isoindole-1,3-dione]", "values": [{"measurement": "Dmax", "setting": "[1]; read-out: **WT Dmax (%)", "value": "50 to 70", "unit": "%"}, {"measurement": "DC50", "setting": "[1]; read-out: *WT DC50", "value": "< 10", "unit": "nM"}, {"measurement": "DC50", "setting": "[2]", "value": "10 to 50", "unit": "nM"}, {"measurement": "Dmax", "setting": "[2]", "value": "50 to 70", "unit": "%"}, {"measurement": "Dmax", "setting": "[3]; read-out: **Endogenous WT Dmax (%)", "value": "50 to 70", "unit": "%"}, {"measurement": "DC50", "setting": "[3]; read-out: *Endogenous WT DC50", "value": "< 10", "unit": "nM"}]}
